# The source made the active and inactive calls. No cut-off for these calls is given here.
# Experiments:
# Rattus norvegicus = test: Inhibition of right ventricle hypertrophic response to monocrotaline-induced pulmonary arterial hypertension assessed as ratio of right ventricular weight to left ventricle plus septum in Wistar rat at 30 mg/kg administered through oral gavage twice daily for 21 consecutive days starting 24 hrs after monocrotaline challenge; assay type: functional, organism-based
# Platelet = test: Inhibition of ADP-induced platelet aggregation in human platelet rich plasma pre-incubated for 1 min before ADP addition and measured 3 mins post ADP addition by aggregometry; assay type: functional
# [1] = Stability of the compound in Cremophor RH40 assessed as observable compound degradation after 4 weeks in glass vial at 50 degC; assay type: physicochemical; conditions: 672 h
# [2] = Stability of the compound in TPGS 1000 assessed as observable compound degradation after 4 weeks in glass vial at 50 degC; assay type: physicochemical; conditions: 672 h
# [3] = Stability of the compound in Cremophor RH40 assessed as observable API assay loss after 4 weeks in glass vial at 50 degC; assay type: physicochemical; conditions: 672 h
# [4] = Stability of the compound in Imwitor 742 assessed as observable API assay loss after 4 weeks in glass vial at 50 degC; assay type: physicochemical; conditions: 672 h
# [5] = Stability of the compound in TPGS 1000 assessed as observable API assay loss after 4 weeks in glass vial at 50 degC; assay type: physicochemical; conditions: 672 h
# [6] = Stability of the compound in Imwitor 742 assessed as observable compound degradation after 4 weeks in glass vial at 50 degC; assay type: physicochemical; conditions: 672 h
# Prostacyclin receptor = Prostacyclin receptor (Homo sapiens, UniProt P43119); test: Agonist activity at human recombinant prostacyclin receptor expressed in CHO-K1 cells assessed as induction of cAMP accumulation incubated for 1 hr by HTRF assay; assay type: functional, cell-based
# Chain of Prostacyclin receptor (P43119 whole entry): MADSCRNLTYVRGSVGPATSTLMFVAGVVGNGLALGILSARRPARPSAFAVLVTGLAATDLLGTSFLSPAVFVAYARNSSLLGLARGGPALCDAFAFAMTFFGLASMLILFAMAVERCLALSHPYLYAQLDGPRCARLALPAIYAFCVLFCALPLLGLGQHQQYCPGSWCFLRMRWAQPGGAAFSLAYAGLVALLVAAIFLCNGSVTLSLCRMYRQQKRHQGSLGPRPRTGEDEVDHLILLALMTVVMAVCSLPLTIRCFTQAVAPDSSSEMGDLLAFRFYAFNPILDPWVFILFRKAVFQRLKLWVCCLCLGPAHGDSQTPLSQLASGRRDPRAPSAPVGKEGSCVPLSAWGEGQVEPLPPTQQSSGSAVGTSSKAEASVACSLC
IC50 (Platelet) [µM],EC50 (Prostacyclin receptor) [µM],Compound,further results
–,–,O=C(O)COC[C@H]1CC[C@H](COC(=O)N(c2ccccc2)c2ccc(Cl)cc2)CC1 [listing 1 of 2 here],Activity (Rattus norvegicus): Active
0.0105 to 1.59,–,O=C(O)COC[C@H]1CC[C@H](COC(=O)N(c2ccccc2)c2ccc(Cl)cc2)CC1 [listing 2 of 2 here],Stability [1]: Stable; Stability [2]: Stable; Stability [3]: Stable; Stability [4]: Stable; Stability [5]: Stable; Stability [6]: Stable
0.0105 to 1.59,–,O=C(O)COC[C@H]1CC[C@H](COC(=O)N(c2ccccc2)c2cccc(F)c2)CC1,Activity (Rattus norvegicus): Active
0.0105 to 1.59,0.0027 to 2.65,O=C(O)COC[C@H]1CC[C@H](COC(=O)N(c2ccccc2)c2ccc(Cl)cn2)CC1,–
0.0105 to 1.59,0.0027 to 2.65,O=C(O)COC[C@H]1CC[C@H](CNC(=O)N(c2ccccc2)c2ccc(F)cc2)CC1,–
0.0105 to 1.59,0.0027 to 2.65,O=C(O)COC[C@H]1CC[C@H](COC(=O)N(c2ccccc2)c2ccc(Cl)c(F)c2)CC1,–
0.0105 to 1.59,0.0027 to 2.65,Cc1ccc(N(C(=O)OC[C@H]2CC[C@H](COCC(=O)O)CC2)c2cccc(F)c2)cc1,–
0.0105 to 1.59,0.0027 to 2.65,COc1ccc(N(C(=O)NC[C@H]2CC[C@H](COCC(=O)O)CC2)c2ccccc2)c(C)c1,–
0.0105 to 1.59,0.0027 to 2.65,O=C(O)COC[C@H]1CC[C@H](COC(=O)N(c2cccc(F)c2)c2ccc(Cl)c(F)c2)CC1,–
0.0105 to 1.59,0.0027 to 2.65,O=C(O)COC[C@H]1CC[C@H](COC(=O)N(c2cccc(F)c2)c2cc(F)cc(F)c2)CC1,–
0.0105 to 1.59,0.0027 to 2.65,Cc1ccc(N(C(=O)OC[C@H]2CC[C@@H](COCC(=O)O)CC2)c2ccccc2)cc1,–
0.0105 to 1.59,0.0027 to 2.65,O=C(O)COC[C@H]1CC[C@H](COC(=O)N(c2cccc(F)c2)c2ccc(F)c(F)c2)CC1,–
0.0105 to 1.59,0.0027 to 2.65,O=C(O)COC[C@H]1CC[C@H](COC(=O)N(c2cccc(F)c2)c2cnccn2)CC1,–
0.0105 to 1.59,0.0027 to 2.65,O=C(O)COC[C@H]1CC[C@H](COC(=O)N(c2cccc(F)c2)c2cccc(OC(F)(F)F)c2)CC1,–
0.0105 to 1.59,0.0027 to 2.65,CN(C(=O)NC[C@H]1CC[C@H](COCC(=O)O)CC1)C(c1ccccc1)c1ccccc1,–
0.0105 to 1.59,0.0027 to 2.65,COc1ccccc1N(C(=O)OC[C@H]1CC[C@@H](COCC(=O)O)CC1)c1ccccc1,–
0.0105 to 1.59,0.0027 to 2.65,O=C(O)COC[C@H]1CC[C@H](COC(=O)N(c2ccccc2)c2ccccn2)CC1,–
0.0105 to 1.59,0.0027 to 2.65,COc1cccc(N(C(=O)OC[C@H]2CC[C@H](COCC(=O)O)CC2)c2ccccc2)c1,–
0.0105 to 1.59,0.0027 to 2.65,CN(C[C@H]1CC[C@H](COCC(=O)O)CC1)C(=O)N(c1ccccc1)c1ccccc1,–
0.0105 to 1.59,0.0027 to 2.65,O=C(O)COC[C@H]1CC[C@H](CNC(=O)NC(c2ccccc2)c2ccccc2)CC1,–
